Measured values published in patent US20070010669A1, “Novel class of cytodifferentiating agents and histone deacetylase inhibitors, and methods of use thereof” (priority 1999, published 2007).
Read-outs that look alike come from different tables or passages of the source.

Columns and labels:
[1] = biological target: affinity purified human epitope-tagged (Flag) HDAC1 (Homo sapiens, UniProt Q13547); assay: Histone Deacetylase (HDAC) enzymatic activity, [3H]acetyl-labeled histone substrate; type: biochemical; design: Flag
Description: (§1) Substrate ([^3H]acetyl-labeled murine erythroleukemia cell-derived histone) was added and the samples were incubated for 20 min at 37° C. in a total volume of 30 μl. The reaction were then stopped and released acetate was extracted and the amount of radioactivity released determined by scintillation counting.
as §1, with “Substrate ([^3H]acetyl-labelled” for “Substrate ([^3H]acetyl-labeled”, “The reactions” for “The reaction”, “and relaesed” for “and released”
as §1, with “([^3H]acetyl-labelled” for “([^3H]acetyl-labeled”, “reactions” for “reaction”
The effect was assayed by incubating the enzyme preparation in the absence of substrate on ice for 20 minutes with the indicated amounts of compound. Substrate([^3H]acetyl-labeled murine erythroleukemia cell-derived histones) was added and the samples were incubated for 20 minutes at 37° C. in a total volume of 30 μl. The reactions were then stopped and released acetate was extracted and the amount of radioactivity released determined by scintillation counting.

[2] = test system: Murine erythroleukemia (MEL) cells; assay: MEL cell differentiation assay (benzidine assay; cell growth by Coulter Counter); type: cell-based; conditions: for MEL Diff % B+ / MEL Diff Cells/ml × 10^−5: Table 2; for MEL Diff Cells/ml × 10^−5: cell growth; for concentration able to induce MEL cell differentiation: FIGS. 1, 3, 4, 6; for concentration able to induce MEL cell differentiation / MEL Differentiation Opt.: 5-day culture; for MEL Differentiation % B+ / MEL Differentiation Opt.: Table 1; for MEL Differentiation % B+: benzidine-positive cells at Opt. concentration; for MEL Differentiation Opt.: optimal concentration
Description: (§2) The MEL cell differentiation assay was used to assess the ability of Compound 1 to induce terminal differentiation. MEL cells (logarithmically dividing) were cultured with the indicated concentrations of Compound 1. Following a 5-day culture period, cell growth was determined using a Coulter Counter and differentiation was determined microscopically using the benzidine assay to determine hemoglobin protein accumulation on a per cell basis.
as §2, with “2” for “1”, “2.” for “1.”, “period” for “period, cell growth was determined using a Coulter Counter and”
as §2, with “3” for “1”, “3.” for “1.”, “period” for “period, cell growth was determined using a Coulter Counter and”, “microsdopically” for “microscopically”
as §2, with “4” for “1”, “4.” for “1.”, “period” for “period, cell growth was determined using a Coulter Counter and”
All the compounds which were prepared were tested. […] Table 2 is compiled from experiments similar to the experiments described in Examples 7-10 above.

HDAC = HDAC (Homo sapiens, UniProt Q13547); assay: Inhibition of the enzyme HDAC (Examples 12 and 13); type: biochemical; conditions: Example 12; read-out: ID50 as inhibitor of HDAC
[3] = Table 2, unit nM, read-out: HDAC inh ID50
[4] = Table 2, unit column μm, read-out: HDAC inh ID50
[5] = Table 2, unit μM, read-out: HDAC inh ID50
[6] = FIGS. 2, 5, 7, read-out: ID50 of HDAC1 enzymatic activity

Chain of affinity purified human epitope-tagged (Flag) HDAC1 (Q13547 whole entry): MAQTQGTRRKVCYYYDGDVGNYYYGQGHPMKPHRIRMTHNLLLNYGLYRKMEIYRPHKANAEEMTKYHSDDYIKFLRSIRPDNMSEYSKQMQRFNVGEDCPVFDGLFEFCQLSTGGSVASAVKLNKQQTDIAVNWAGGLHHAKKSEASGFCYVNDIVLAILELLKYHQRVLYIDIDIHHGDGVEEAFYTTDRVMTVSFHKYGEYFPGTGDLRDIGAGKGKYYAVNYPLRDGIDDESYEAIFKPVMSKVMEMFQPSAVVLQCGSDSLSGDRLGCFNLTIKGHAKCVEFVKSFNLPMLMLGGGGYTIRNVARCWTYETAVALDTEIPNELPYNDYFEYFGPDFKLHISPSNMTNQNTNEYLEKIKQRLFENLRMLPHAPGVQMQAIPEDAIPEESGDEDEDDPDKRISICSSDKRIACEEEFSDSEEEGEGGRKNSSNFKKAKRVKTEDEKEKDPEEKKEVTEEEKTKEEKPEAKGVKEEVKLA
Chain of HDAC (Q13547 whole entry): as above

Compound | IC50 [1, 3] | MEL Diff % B+ [2] | MEL Diff Cells/ml × 10^−5 [2] | other results
O=C(CCCCCC(C(=O)Nc1cccc2cccnc12)C(=O)Nc1cccc2cccnc12)NO [Compound 667] | 50 nM | 27% | 2 Cells/ml × 10^−5 | –
O=C(O)CCCCC[C@@H](NC(=O)c1cccnc1)C(=O)Nc1ccccc1 [Compound 657] | – | 0% | – | IC50 [1, 4]: > 100000 nM
O=C(CCCCCCC(=O)C(F)(F)F)Nc1ccccc1 [Compound 670] | – | – | 13.0 Cells/ml × 10^−5 | –
O=C(/C=C/c1cccc(C(C(=O)Nc2cccc3cccnc23)C(=O)Nc2cccc3cccnc23)c1)NO [Compound 690] | 150 nM | 38% | – | –
O=C(CCCCCCC(=O)Nc1cc[nH]n1)Nc1ccccc1 [Compound 688] | – | 0% | No inh | IC50 [1, 5]: > 100000 nM
O=C(CCCCC[C@@H](NC(=O)c1ccccc1)C(=O)Nc1cccc2cccnc12)NO [Compound 661] | 20 nM | 7% | – | –
NS(=O)(=O)CCCCCC(=O)Nc1ccccc1 [Compound 678] | – | 0% | No inh | IC50 [1, 5]: > 100000 nM
O=C(CCCCC[C@H](NC(=O)c1ccccc1)C(=O)Nc1ccccc1)NO [Compound 1, N-Benzoyl-(L)-α-aminosuberoylanilide-ω-hydroxamic acid] | – | 44% | 9 Cells/ml × 10^−5 | IC50 [1, 6]: 1 nM; concentration able to induce MEL cell differentiation [2]: 200 nM; MEL Differentiation % B+ [2]: 44%; MEL Differentiation Opt. [2]: 200 nM
O=C(CCCCC[C@@H](NC(=O)c1ccccc1)NC(=O)C1CCCCC1)NO [Compound 663] | 100 nM | 43% | 7 Cells/ml × 10^−5 | –
O=C(CCCCCC(NC(=O)OCc1ccccc1)C(=O)Nc1ccccc1)NO (stereo not drawn) [Compound 3, N-benzyloxycarbonyl-(L)-α-aminosuberateanilide-ω-hydroxamic acid] | 100 nM | 16% | 3.3 Cells/ml × 10^−5 | –
O=C(CCCCC[C@H](NC(=O)c1cccnc1)C(=O)Nc1ccccc1)NO (stereo in doubt) [Compound 2, N-Nicotinoyl-(L)-α-aminosuberoylanilide-ω-hydroxamic acid] | 50 nM | 27% | – | –
O=C(CCCCCCC(=O)Nc1cccc2cccnc12)NO [Compound 668] | 100 nM | 11% | 4.7 Cells/ml × 10^−5 | –
O=C(CCCCC[C@H](NC(=O)OCc1ccccc1)C(=O)Nc1ccccc1)NO [Compound 3, N-benzyloxycarbonyl-(L)-α-aminosuberateanilide-ω-hydroxamic acid] | – | – | – | IC50 [1, 6]: 100 nM; concentration able to induce MEL cell differentiation [2]: 400 nM; MEL Differentiation % B+ [2]: 16%; MEL Differentiation Opt. [2]: 400 nM
NS(=O)(=O)CCCCCCC(=O)Nc1ccccc1 [Compound 686] | – | 0% | No inh | –
O=C(CCCCCBr)Nc1ccccc1 [Compound 676] | – | 0% | No inh | –
OC(c1ncc[nH]1)(c1ncc[nH]1)c1nc(CCCCCc2cnc(C(O)(c3ncc[nH]3)c3ncc[nH]3)[nH]2)c[nH]1 [Compound 674] | – | 0% | Dead at 25 μM | IC50 [1, 5]: 50000 nM
CN(C)c1cccc2cc(S(=O)(=O)NCCCCCC(=O)NO)ccc12 [Compound 671] | 200 nM | 35% | 12.5 Cells/ml × 10^−5 | –
CC(=O)SCCCCCC(=O)Nc1ccccc1 [Compound 675] | – | 0% | No inh | IC50 [1, 5]: > 100000 nM
O=C(Nc1ccccc1)C(CCCCCC(=O)C(F)(F)F)C(=O)Nc1ccccc1 [Compound 669] | – | 11% | 16.0 Cells/ml × 10^−5 | IC50 [1, 5]: 10000 nM
O=C(O)CCCCC[C@@H](NC(=O)c1ccccc1)C(=O)Nc1ccccc1 [Compound 656] | – | 0% | – | IC50 [1, 4]: > 100000 nM
O=C(/C=C/c1cccc(C(C(=O)Nc2ccccc2)C(=O)Nc2ccccc2)c1)NO [Compound 77, 3-(malonyldi(phenylamide)) cinnamyl hydroxamic acid] | – | 9% | 9.0 Cells/ml × 10^−5 | –

Compound | IC50 [1, 3] | MEL Diff % B+ [2] | MEL Diff Cells/ml × 10^−5 [2] | other results
O=C(CCCCCC(C(=O)Nc1cccc2cccnc12)(C(=O)Nc1cccc2cccnc12)c1ccccc1)NO [Compound 681] | 200 nM | 3% | 2.5 Cells/ml × 10^−5 | –
O=C(CCCCCC(CCCCCC(=O)NO)(C(=O)Nc1cccc2cccnc12)C(=O)Nc1cccc2cccnc12)NO [Compound 685] | 150 nM | 20% | 1.0 Cells/ml × 10^−5 | –
O=C(CCCCCn1ccnc1)Nc1ccccc1 [Compound 679] | – | 0% | No inh | IC50 [1, 5]: > 100000 nM
O=C(CCCCCC(C(=O)Nc1ccccc1)(C(=O)Nc1ccccc1)c1ccccc1)NO [Compound 682] | 150 nM | 8% | 1.1 Cells/ml × 10^−5 | –
O=C(/C=C/c1cccc(C(=O)Nc2ccccc2)c1)NO [Compound 687] | – | 0% | No inh | IC50 [1, 5]: 200000 nM
O=C(CCCCCC(C(=O)Nc1ccc2ncccc2c1)C(=O)Nc1ccc2ncccc2c1)NO [Compound 692] | – | 27% | – | –
O=C(CCCCC[C@H](NC(=O)c1cccnc1)C(=O)Nc1ccccc1)NO [Compound 2, N-Nicotinoyl-(L)-α-aminosuberoylanilide-ω-hydroxamic acid] | – | – | – | concentration able to induce MEL cell differentiation [2]: 800 nM; MEL Differentiation % B+ [2]: 27%; MEL Differentiation Opt. [2]: 800 nM
O=C(CCCCCCn1ccnc1)Nc1ccccc1 [Compound 684] | – | 0% | No inh | –
O=C(CCCCC[C@H](NC(=O)c1cccs1)C(=O)Nc1ccccc1)NO [Compound 665] | 50 nM | 24% | 30 Cells/ml × 10^−5 | –
COP(=O)(NCCCCCC(=O)Nc1ccccc1)OC [Compound 673] | – | 0% | No inh | –
O=C(CCCCCC(C(=O)Nc1cccc2ncccc12)C(=O)Nc1cccc2ncccc12)NO [Compound 691] | 100 nM | 0% | No inh | –
O=C(O)CCCCCC(NC(=O)OCc1ccccc1)C(=O)Nc1cccc2cccnc12 (stereo not shown) [Compound 659] | – | 0% | – | IC50 [1, 5]: 10000 nM
O=C(CCCCCCC(=O)Nc1nccs1)Nc1ccccc1 [Compound 693] | – | 0% | No inh | IC50 [1, 5]: > 100000 nM
O=C(/C=C/c1cccc(CC(=O)Nc2ccccc2)c1)NO [Compound 689] | 200 nM | 48% | – | –
O=C(CCCCCC(C(=O)Nc1cnc2ccccc2c1)C(=O)Nc1cnc2ccccc2c1)NO [Compound 677] | 5 nM | 23% | 4.5 Cells/ml × 10^−5 | –
CS(=O)(=O)NCCCCCC(=O)Nc1ccccc1 [Compound 662] | – | 0% | – | IC50 [1, 5]: > 100000 nM
O=C(CCCCCC(C(=O)Nc1ccccc1)C(=O)Nc1ccccc1)NO [Compound 666] | 100 nM | 31% | 28 Cells/ml × 10^−5 | –
O=C(CCCCC[C@H](NC(=O)c1cnc2ccccc2c1)C(=O)Nc1ccccc1)NO [Compound 664] | 50 nM | 33% | 22 Cells/ml × 10^−5 | –
O=C(CCCCCC(C(=O)Nc1cccc2cccnc12)C(=O)Nc1cccc2cccnc12)NO [Compound 7] | – | – | – | IC50 (HDAC): 50 nM
CC(=O)SCCCCCCCC(=O)Nc1ccccc1 [Compound 680] | – | – | – | IC50 [1, 5]: > 100000 nM
